Measured values from the supplement of paper PMC8671470.
Where a name gives a salt, the structure may show the parent alone.

How the values were obtained:
Assay in all cases: cell viability (% survival relative to DMSO control); higher = less cytotoxic
Settings in all cases: 72 h
HL-60 = system: HL-60
Protocol: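 8x8 drug-combination matrices (0-5000 nM; rosiglitazone and lestaurtinib 0-1000 nM) were run in HL-60 cells for 72 h with a CellTiter-Glo read-out. Survival is normalised to DMSO and 10 µM bortezomib and clipped at 100%. Bliss synergy was analysed in SynergyFinder.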

[1] = system: myeloid leukemia patient primary cells Pat.10
Procedure, shortened: (§1)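 Thawed, Ficoll-purified mononuclear cells from AML or CML patients in RPMI 1640 with 10% FBS were seeded at 10,000 cells/well on 384-well plates pre-printed with 70 compounds at five tenfold concentrations, 1–10,000 nM, in duplicate, for 72 h. Viability was read by CellTiter-Glo and normalised to DMSO and 10 μM proteasome-inhibitor wells. Where given, area under the curve came from four-parameter log-logistic fits (drc, PharmacoGx R packages).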

[2] = system: myeloid leukemia patient primary cells Pat.11
Procedure, shortened: as §1

[3] = system: myeloid leukemia patient primary cells Pat.12
Procedure, shortened: as §1

[4] = system: myeloid leukemia patient primary cells Pat.14
Procedure, shortened: as §1

[5] = system: myeloid leukemia patient primary cells Pat.15
Procedure, shortened: as §1

[6] = system: myeloid leukemia patient primary cells Pat.1
Procedure, shortened: as §1

[7] = system: myeloid leukemia patient primary cells Pat.2
Procedure, shortened: as §1

[8] = system: myeloid leukemia patient primary cells Pat.4
Procedure, shortened: as §1

[9] = system: myeloid leukemia patient primary cells Pat.6
Procedure, shortened: as §1

Oc1ncc(F)c(O)n1 [5-fluorouracil] + C[C@]12O[C@H](C[C@]1(O)CO)n1c3ccccc3c3c4c(c5c6ccccc6n2c5c31)CNC4=O [Lestaurtinib]
cell viability [%], HL-60
Settings | drug1 concentration 5 nM | drug1 concentration 10 nM | drug1 concentration 50 nM | drug1 concentration 100 nM | drug1 concentration 500 nM | drug1 concentration 1000 nM | drug1 concentration 5000 nM
drug2 concentration 1 nM | > 100 | > 100 | 53 | > 100 | 89.7 | 66.2 | 62.9
drug2 concentration 5 nM | > 100 | 79.6 | > 100 | 71.6 | 91.6 | 64.7 | 80.9
drug2 concentration 10 nM | 73.2 | 98.7 | > 100 | > 100 | 84.2 | 50.3 | 66.5
drug2 concentration 50 nM | 72 | 85.6 | 56.1 | 67.8 | 53.5 | 77.1 | 43
drug2 concentration 100 nM | 60.5 | 67.5 | 68.8 | 63.6 | 74.3 | 51.8 | 32.6
drug2 concentration 500 nM | 32.8 | 32.6 | 48.9 | 41.5 | 35.7 | 33.5 | 26.1
drug2 concentration 1000 nM | 8.89 | 19.8 | 19.4 | 20.8 | 52.9 | 25.7 | 0

O=C(/C=C/c1cccnc1)NCCCCC1CCN(C(=O)c2ccccc2)CC1 [Daporinad]
cell viability [%]
Settings | [1] | [2] | [3] | [4] | [5] | [6] | [7] | [8] | [9]
1 nM | 28.5 | 94.7 | 91.5 | 17.1 | 80.9 | 98.2 | 91.1 | 38.2 | 60.3
10 nM | 2.87 | 10.9 | 32.2 | 1.32 | 24.2 | 64.2 | 30.5 | 3.86 | 51.7
100 nM | < 0 | 1.05 | 8.2 | 2.09 | 0.879 | 20.9 | 11.7 | 2.67 | 24.6
1000 nM | 2.87 | 2.36 | 5.73 | < 0 | 1.32 | 16.9 | 9.71 | 2.08 | 25.6
10000 nM | < 0 | 0.862 | 3.19 | 0.671 | 0.659 | 11 | 6.63 | 0.709 | 19.4

CC(C)(Cc1ccccc1)NCC(O)c1ccc(O)c(NS(C)(=O)=O)c1 (stereo not drawn) [Zinterol hydrochloride]
cell viability [%]
Settings | [1] | [2] | [3] | [4] | [5] | [6] | [7] | [8] | [9]
1 nM | 61 | 95.7 | 90.2 | 73.4 | 87 | 89.4 | 85.5 | 87.7 | > 100
10 nM | 94.8 | > 100 | 98.3 | 87.2 | > 100 | > 100 | 96.4 | 94.7 | > 100
100 nM | 38.2 | > 100 | 93.9 | 91.3 | 95.8 | 98.6 | 86 | 82.8 | > 100
1000 nM | > 100 | 96.2 | 99 | 90.7 | 95.8 | 94.8 | 99.7 | 93.3 | > 100
10000 nM | > 100 | > 100 | 97.5 | 75.6 | 68.9 | > 100 | 93 | 97.3 | > 100

Clc1cc(Cl)c(OCC#CI)cc1Cl [Haloprogin]
cell viability [%]
Settings | [1] | [2] | [3] | [4] | [5] | [6] | [7] | [8] | [9]
1 nM | 43.6 | 94.1 | 92.9 | 88.5 | 85.7 | 91.8 | 93.8 | 88.7 | > 100
10 nM | 75.4 | > 100 | 96.3 | 96.7 | 98.8 | 99.9 | 96.9 | 87.3 | > 100
100 nM | 46.9 | 96 | 94.2 | 68.3 | 85.4 | 82 | 92.1 | 85.3 | 93.3
1000 nM | 23.9 | 81.8 | 67.1 | 7.52 | 66.8 | 48.3 | 65 | 13 | 54.7
10000 nM | 93.2 | 1.14 | 0.0486 | < 0 | 6.74 | 14.1 | < 0 | 28.3 | < 0

c1ccc2c(c1)SCc1c-2[nH]c2ccccc12
cell viability [%]
Settings | [1] | [2] | [3] | [4] | [5] | [6] | [7] | [8] | [9]
1 nM | 73.8 | > 100 | 96.4 | 95.4 | 94.1 | 95.2 | 96.8 | 95.6 | 98.8
10 nM | 59.9 | 94.7 | 96.2 | 54.1 | 97.3 | 64.7 | 89.3 | 83.4 | 82.9
100 nM | 41.9 | 99.1 | 94.1 | 67.2 | 89.1 | 96.7 | 97.2 | 91 | 95
1000 nM | 3.78 | 89.8 | 81.1 | 4.19 | 59.8 | 85.8 | 86.9 | 67.8 | 88.3
10000 nM | 42.4 | 0.682 | 0.896 | 6.72 | 0.46 | 0.548 | 3.43 | < 0 | 0.384

CN(C)C(=O)n1nnnc1Cc1ccc(-c2ccccc2)cc1 + CCOC(=O)N1c2ccc(C(F)(F)F)cc2[C@@H](N(Cc2cc(C(F)(F)F)cc(C(F)(F)F)c2)C(=O)OC)C[C@H]1CC [Torcetrapib]
cell viability [%], HL-60
Settings | drug1 concentration 5 nM | drug1 concentration 10 nM | drug1 concentration 50 nM | drug1 concentration 100 nM | drug1 concentration 500 nM | drug1 concentration 1000 nM | drug1 concentration 5000 nM
drug2 concentration 5 nM | 89.2 | > 100 | 64.3 | > 100 | 94.3 | > 100 | 8.91
drug2 concentration 10 nM | > 100 | > 100 | > 100 | > 100 | > 100 | 90 | 15.4
drug2 concentration 50 nM | 81.6 | > 100 | 86.8 | 80.8 | 79.3 | 87.4 | 6.94
drug2 concentration 100 nM | 91.3 | > 100 | > 100 | 82.7 | > 100 | 80 | 14.4
drug2 concentration 500 nM | > 100 | > 100 | > 100 | > 100 | > 100 | 85 | 6.21
drug2 concentration 1000 nM | > 100 | > 100 | > 100 | > 100 | 98.3 | > 100 | 13
drug2 concentration 5000 nM | > 100 | > 100 | > 100 | > 100 | > 100 | 78.8 | 0

O=c1[nH]c(=O)n([C@H]2C[C@H](O)[C@@H](CO)O2)cc1I [Idoxuridine]
cell viability [%]
Settings | [1] | [2] | [3] | [4] | [5] | [6] | [7] | [8] | [9]
1 nM | 76.4 | > 100 | 95.6 | 82.1 | 92.5 | 84.3 | > 100 | 99.7 | 97.7
10 nM | 55.7 | 95.9 | 95.6 | 75.7 | 93.5 | 81.5 | 90 | 82.4 | 97.7
100 nM | 61.4 | 96.4 | 99 | 92.2 | 93.7 | 95 | 94.9 | 89.8 | 99.8
1000 nM | 41.6 | 90.7 | 87.3 | 58.6 | 90.3 | 74.3 | 84.2 | 68.2 | 83.2
10000 nM | > 100 | > 100 | 99.1 | > 100 | 94.7 | 95.4 | 98.2 | 93.1 | > 100

O=C(Oc1cccc(F)c1OC(=O)c1cccc(O)c1)c1cccc(O)c1 [WZB117]
cell viability [%]
Settings | [1] | [2] | [3] | [4] | [5] | [6] | [7] | [8] | [9]
1 nM | 70.4 | > 100 | 98.4 | 97.9 | 96.4 | 98 | 99.7 | 94.5 | 96.3
10 nM | 90.9 | 94.1 | 92.8 | 61.5 | 78.9 | 81.2 | 83.5 | 82.1 | 87.9
100 nM | 74.7 | > 100 | 95.5 | 74 | 86.1 | 78 | 90.5 | 85.2 | 87.1
1000 nM | 54.5 | 95.1 | 86.4 | 90.2 | 75.7 | 88.7 | 93.6 | 99 | 93.3
10000 nM | 31.5 | 75.4 | 57 | 5.34 | 61.3 | 47.3 | 77.1 | 17.3 | 62.6

Nc1nc(O)c2c(CCc3ccc(C(=O)N[C@@H](CCC(=O)O)C(=O)O)cc3)c[nH]c2n1 [Pemetrexed]
cell viability [%]
Settings | [1] | [2] | [3] | [4] | [5] | [6] | [7] | [8] | [9]
1 nM | 85.8 | > 100 | > 100 | 86.9 | 96.9 | > 100 | 81.9 | > 100 | 96.3
10 nM | 86 | > 100 | 94.2 | 82.5 | 98.4 | 99.3 | 96.3 | 93.8 | > 100
100 nM | 51.4 | > 100 | 95.4 | 90.2 | > 100 | > 100 | 97.9 | 93.1 | 97.8
1000 nM | 81.3 | > 100 | 99.1 | 94.7 | 63.2 | 96.8 | 94.3 | 67.3 | 98.7
10000 nM | 59.3 | 93.9 | 97.1 | 52.5 | 94.2 | 84.1 | 87.3 | 82.8 | 78.6

O=C(c1c2ccccc2cc2ccccc12)N1CCC(N2CCC[C@@H](C(=O)N3CCOCC3)C2)CC1
cell viability [%]
Settings | [1] | [2] | [3] | [4] | [5] | [6] | [7] | [8] | [9]
1 nM | 88.3 | 99.3 | > 100 | 88.9 | 93.9 | > 100 | 94.4 | 92.6 | 99.8
10 nM | 67.9 | > 100 | 92 | 98.9 | 94.5 | 83 | 99.4 | 95 | 96.8
100 nM | 78.7 | 92.5 | 99.7 | 98.2 | 84.5 | > 100 | 98 | 90.2 | 96.6
1000 nM | 29.7 | 72.6 | 80.6 | 56.4 | 71.3 | 58.3 | 75.4 | 65.1 | 74.9
10000 nM | 80.8 | 98 | 96.9 | 94.4 | 88.6 | 96.7 | 98.1 | 60.7 | 96.6
